Laboratory results: US6818630B1, “Biologically active materials” (ML Laboratories PLC, priority 1999, dated 2004)

Tested on: B16F10 murine melanoma
Experiment: Anticancer activity and survival in C57 black mice bearing s.c. B16F10 melanoma
Assay type: in vivo, mouse
Method: Twenty four C57 black mice were injected subcutaneously (s.c.) with 10^5 B16F10 murine melanoma cells as described above and then monitored daily for well-being and the presence of palpable tumours. When the tumours were palpable, mice were randomly assigned into groups of six and their tumours measured with a micrometer gauge. Tumour size and mouse body weight is recorded. Each group is then injected intra-peritoneally with either sterile saline (negative control), free doxorubicin (5 mg kg^−1) in sterile saline or dextrin-doxorubicin (11.8 wt %, 34% succinolyation) at either 5 mg kg^−1 or 10 mg kg^−1, on days 0,1 and 2. The mice were monitored daily and tumour size and body weight recorded. Once the tumour area exceeded 2.89 cm^2 the mice were culled according to UKCCCR guidelines. Mouse survival is then expressed as % T/C (test/control saline).

COc1cccc2c1C(=O)c1c(O)c3c(c(O)c1C2=O)C[C@@](O)(C(=O)CO)C[C@@H]3O[C@H]1C[C@H](N)[C@H](O)[C@H](C)O1 [doxorubicin]
anticancer activity (5 mg kg^-1 i.p.): not active | body weight / toxicity (5 mg kg^-1 i.p.): drop in body weight consistent with toxicity | Toxic deaths (5 mg kg^-1 i.p. on day 0,1,2): 0/6 | Days survival after treatment (mean ± SD) (5 mg kg^-1 i.p. on day 0,1,2, N = 6): 4.5 ± 0.5^ns days | T/C (%) (5 mg kg^-1 i.p. on day 0,1,2, survival test/control saline): 103%
